Test results as given in patent publication US12268674B2, “Mi-2β inhibitor as an immunotherapy agent” (BioVentures, LLC, priority 2021, dated 2025).

How the values were obtained:
DHX36 = target: T1, DHX36 (Homo sapiens, UniProt Q9H2U1); assay: ATPase profile (ATP acyl phosphate probe); assay type: binding; details: DHX36, SEQ ID NO: 73, ATP BS
T1 construct: endogenous in cells; host or cells: A375 cell lysate

HDDC3 = target: T2, HDDC3 (Homo sapiens, UniProt Q8N4P3); assay: ATPase profile (ATP acyl phosphate probe); assay type: binding
T2 construct: to get the native cell lysate; endogenous in cells; host or cells: A375

TK2 = target: T3, TK2 (Homo sapiens, UniProt O00142); assay: ATPase profile (ATP acyl phosphate probe); assay type: binding; details: TK2, SEQ ID NO: 201, ATP BS
T3 construct: to get the native cell lysate; endogenous in cells; host or cells: A375 cell lysate

ACACA = target: T4, ACACA (Homo sapiens, UniProt Q13085); assay: ATPase profile (ATP acyl phosphate probe); assay type: binding; details: SEQ ID NO: 20, ATP BS
T4 construct: to get the native cell lysate; host or cells: A375 cell lysate

GMPS = target: T5, GMPS (Homo sapiens, UniProt P49915); assay: ATPase profile (ATP acyl phosphate probe); assay type: binding
T5 construct: endogenous in cells; host or cells: A375 cell lysate

PFKM = target: T6, PFKM (Homo sapiens, UniProt P08237); assay: ATPase profile (ATP acyl phosphate probe); assay type: binding; details: SEQ ID NO: 159, ATP BS
T6 construct: to get the native cell lysate; endogenous in cells; host or cells: A375 cell lysate

ACACB = target: T7, ACACB (Homo sapiens, UniProt O00763); assay: ATPase profile (ATP acyl phosphate probe); assay type: binding; details: SEQ ID NO: 21, ATP BS
T7 construct: to get the native cell lysate; host or cells: A375 cell lysate

ABCF3 = target: T8, ABCF3 (Homo sapiens, UniProt Q9NUQ8); assay: ATPase profile (ATP acyl phosphate probe); assay type: binding; details: ABCF3, SEQ ID NO: 19, ATP BS
T8 construct: to get the native cell lysate; host or cells: A375 cell lysate

HSP90AB1, HSP90AB3P = target: T9, HSP90AB1, HSP90AB3P (Homo sapiens, UniProt P08238); assay: ATPase profile (ATP acyl phosphate probe); assay type: binding; details: SEQ ID NO: 98, ATP BS
T9 construct: to get the native cell lysate; endogenous in cells; host or cells: A375

PDE12 = target: T10, PDE12 (Homo sapiens, UniProt Q6L8Q7); assay: ATPase profile (ATP acyl phosphate probe); assay type: binding; details: PDE12, SEQ ID NO: 155, ATP BS
T10 construct: to get the native cell lysate; endogenous in cells; host or cells: A375 cell lysate

XRCC3 = target: T11, XRCC3 (Homo sapiens, UniProt O43542); assay: ATPase profile (ATP acyl phosphate probe); assay type: binding; details: XRCC3, SEQ ID NO: 230, ATP BS
T11 construct: to get the native cell lysate; endogenous in cells; host or cells: A375 cell lysate

SNRNP200 = target: T12, SNRNP200 (Homo sapiens, UniProt O75643); assay: ATPase profile (ATP acyl phosphate probe); assay type: binding; details: SNRNP200, SEQ ID NO: 196, ATP BS
T12 construct: to get the native cell lysate; endogenous in cells; host or cells: A375 cell lysate

NSF = target: T13, NSF (Homo sapiens, UniProt P46459); assay: ATPase profile (ATP acyl phosphate probe); assay type: binding
T13 construct: to get the native cell lysate; endogenous in cells; host or cells: A375

TCP1 = target: T14, TCP1 (Homo sapiens, UniProt P17987); assay: ATPase profile (ATP acyl phosphate probe); assay type: binding; details: TCP1, SEQ ID NO: 200, ATP BS
T14 construct: to get the native cell lysate; endogenous in cells; host or cells: A375 cell lysate

PSMC6 = target: T15, PSMC6 (Homo sapiens, UniProt P62333); assay: ATPase profile (ATP acyl phosphate probe); assay type: binding; details: PSMC6, SEQ ID NO: 178, ATP BS
T15 construct: to get the native cell lysate; endogenous in cells; host or cells: A375 cell lysate

NUDT7 = target: T16, NUDT7 (Homo sapiens, UniProt P0C024); assay: ATPase profile (ATP acyl phosphate probe); assay type: binding; details: NUDT7, SEQ ID NO: 147, ATP BS
T16 construct: to get the native cell lysate; endogenous in cells; host or cells: A375

MMAB = target: T17, MMAB (Homo sapiens, UniProt Q96EY8); assay: ATPase profile (ATP acyl phosphate probe); assay type: binding; details: SEQ ID NO: 124, ATP BS
T17 construct: to get the native cell lysate; endogenous in cells; host or cells: A375

CNP = target: T18, CNP (Homo sapiens, UniProt P09543); assay: ATPase profile (ATP acyl phosphate probe); assay type: binding; details: SEQ ID NO: 61, ATP BS
T18 construct: endogenous in cells; host or cells: A375 cell lysate

[1] = test system: Mi-2β function (CXCL9, CXCL10, IRF1 expression) in A375 cells; assay: Cell-based assay of inhibitory activity on Mi-2β function, A375; details: summary of Table 3 (A375 and B16)
Protocol: The total RNA was extracted with QIAGEN RNeasy kit […] for cDNA synthesis with SuperScript II Reverse Transcriptase (Invitrogen). In total, 40 ng cDNA was used for quantitative real-time PCR amplification by TaqMan Gene Expression Master Mix (Thermo Fisher Scientific). The relative transcript levels were normalized with GAPDH expression. The data were calculated with the comparative CT method.

[2] = test system: ACTA2, ACTB, ACTBL2, ACTC1, ACTG1; assay: ATPase profile (ATP acyl phosphate probe); assay type: binding; details: ACTBL2, ACTC1, ACTG1, SEQ ID NO: 24, ATP BS
ATIC = target: T19, ATIC (Homo sapiens, UniProt P31939); assay: ATPase profile (ATP acyl phosphate probe); assay type: binding; details: SEQ ID NO: 47, ATP BS
T19 construct: to get the native cell lysate; host or cells: A375 cell lysate

SKIV2L = target: T20, SKIV2L (Homo sapiens, UniProt Q15477); assay: ATPase profile (ATP acyl phosphate probe); assay type: binding; details: SEQ ID NO: 191, ATP BS
T20 construct: to get the native cell lysate; endogenous in cells; host or cells: A375 cell lysate

NUDT2 = target: T21, NUDT2 (Homo sapiens, UniProt P50583); assay: ATPase profile (ATP acyl phosphate probe); assay type: binding
T21 construct: to get the native cell lysate; endogenous in cells; host or cells: A375

NRK1 = target: T22, NRK1 (Homo sapiens, UniProt Q9NWW6); assay: ATPase profile (ATP acyl phosphate probe); assay type: binding; details: NRK1, SEQ ID NO: 137, ATP BS
T22 construct: to get the native cell lysate; endogenous in cells; host or cells: A375

PRPS1L1, PRPS2 = assay: ATPase profile (ATP acyl phosphate probe); assay type: binding; details: PRPS1L1, PRPS2, SEQ ID NO: 172, ATP BS
HSPA9 = target: T23, HSPA9 (Homo sapiens, UniProt P38646); assay: ATPase profile (ATP acyl phosphate probe); assay type: binding; details: HSPA9, SEQ ID NO: 108, ATP BS
T23 construct: to get the native cell lysate; endogenous in cells; host or cells: A375

COASY = target: T24, COASY (Homo sapiens, UniProt Q13057); assay: ATPase profile (ATP acyl phosphate probe); assay type: binding
T24 construct: endogenous in cells; host or cells: A375 cell lysate

KARS = target: T25, KARS (Homo sapiens, UniProt Q15046); assay: ATPase profile (ATP acyl phosphate probe); assay type: binding; details: SEQ ID NO: 112, ATP BS
T25 construct: to get the native cell lysate; endogenous in cells; host or cells: A375

T24 sequence (Q13057 whole entry): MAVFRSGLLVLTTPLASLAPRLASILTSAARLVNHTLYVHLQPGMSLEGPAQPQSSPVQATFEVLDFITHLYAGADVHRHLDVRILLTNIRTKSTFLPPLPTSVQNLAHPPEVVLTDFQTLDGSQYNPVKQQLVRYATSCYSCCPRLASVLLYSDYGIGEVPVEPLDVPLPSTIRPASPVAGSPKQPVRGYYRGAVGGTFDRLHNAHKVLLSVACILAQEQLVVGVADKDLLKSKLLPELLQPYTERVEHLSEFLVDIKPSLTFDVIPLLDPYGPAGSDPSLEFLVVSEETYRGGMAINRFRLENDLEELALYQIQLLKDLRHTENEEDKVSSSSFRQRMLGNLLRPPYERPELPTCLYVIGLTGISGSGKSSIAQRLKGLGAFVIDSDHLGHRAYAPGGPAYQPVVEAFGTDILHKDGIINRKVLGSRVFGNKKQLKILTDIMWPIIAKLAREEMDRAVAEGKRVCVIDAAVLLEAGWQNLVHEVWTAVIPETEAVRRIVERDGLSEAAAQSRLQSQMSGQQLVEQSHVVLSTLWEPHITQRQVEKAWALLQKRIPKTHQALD
T21 sequence (P50583 whole entry): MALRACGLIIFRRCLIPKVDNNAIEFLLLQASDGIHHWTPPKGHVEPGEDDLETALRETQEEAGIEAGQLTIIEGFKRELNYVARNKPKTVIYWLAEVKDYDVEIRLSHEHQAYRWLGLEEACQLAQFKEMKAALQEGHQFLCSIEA
T13 sequence (P46459 whole entry): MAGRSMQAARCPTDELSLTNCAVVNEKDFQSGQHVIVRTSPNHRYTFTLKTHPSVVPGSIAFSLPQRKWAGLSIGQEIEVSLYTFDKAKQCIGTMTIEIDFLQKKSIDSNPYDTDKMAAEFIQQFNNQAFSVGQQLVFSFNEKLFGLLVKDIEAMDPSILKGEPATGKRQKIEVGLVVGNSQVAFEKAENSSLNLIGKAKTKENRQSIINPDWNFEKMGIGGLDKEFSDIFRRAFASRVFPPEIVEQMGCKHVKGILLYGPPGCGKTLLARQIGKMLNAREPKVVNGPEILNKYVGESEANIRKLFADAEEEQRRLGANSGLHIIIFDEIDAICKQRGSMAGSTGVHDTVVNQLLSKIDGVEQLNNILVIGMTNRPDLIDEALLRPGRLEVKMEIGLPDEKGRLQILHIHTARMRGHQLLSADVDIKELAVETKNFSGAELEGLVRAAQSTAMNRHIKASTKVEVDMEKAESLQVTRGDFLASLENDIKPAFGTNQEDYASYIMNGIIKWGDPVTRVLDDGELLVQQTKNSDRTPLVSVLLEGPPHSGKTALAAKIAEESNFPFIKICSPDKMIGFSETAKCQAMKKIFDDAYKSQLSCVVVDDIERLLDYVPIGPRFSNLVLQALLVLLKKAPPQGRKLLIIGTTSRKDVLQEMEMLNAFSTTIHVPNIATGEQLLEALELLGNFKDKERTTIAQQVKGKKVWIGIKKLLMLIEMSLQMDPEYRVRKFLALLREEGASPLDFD
T2 sequence (Q8N4P3 whole entry): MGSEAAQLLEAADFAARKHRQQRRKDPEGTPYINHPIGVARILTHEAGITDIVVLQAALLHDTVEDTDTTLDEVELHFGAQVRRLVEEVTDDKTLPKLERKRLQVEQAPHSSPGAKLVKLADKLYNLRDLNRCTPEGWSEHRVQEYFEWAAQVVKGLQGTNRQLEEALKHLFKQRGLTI
T5 sequence (P49915 whole entry): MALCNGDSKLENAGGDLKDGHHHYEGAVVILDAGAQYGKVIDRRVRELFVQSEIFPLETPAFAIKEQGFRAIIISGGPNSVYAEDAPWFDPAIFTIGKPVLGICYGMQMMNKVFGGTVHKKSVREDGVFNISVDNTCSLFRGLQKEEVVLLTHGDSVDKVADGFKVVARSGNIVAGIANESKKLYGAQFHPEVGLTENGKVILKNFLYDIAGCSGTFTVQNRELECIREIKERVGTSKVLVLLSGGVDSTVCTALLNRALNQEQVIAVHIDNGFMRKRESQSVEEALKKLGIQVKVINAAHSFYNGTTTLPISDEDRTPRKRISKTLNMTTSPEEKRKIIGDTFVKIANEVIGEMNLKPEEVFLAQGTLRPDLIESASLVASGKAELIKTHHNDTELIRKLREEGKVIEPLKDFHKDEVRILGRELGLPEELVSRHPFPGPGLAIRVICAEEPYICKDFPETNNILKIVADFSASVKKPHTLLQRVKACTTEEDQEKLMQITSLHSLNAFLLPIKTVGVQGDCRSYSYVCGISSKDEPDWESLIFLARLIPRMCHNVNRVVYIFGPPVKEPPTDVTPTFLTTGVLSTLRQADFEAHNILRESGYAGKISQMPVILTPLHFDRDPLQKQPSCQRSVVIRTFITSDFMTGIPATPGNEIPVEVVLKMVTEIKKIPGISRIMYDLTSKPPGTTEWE
T3 sequence (O00142 34-265): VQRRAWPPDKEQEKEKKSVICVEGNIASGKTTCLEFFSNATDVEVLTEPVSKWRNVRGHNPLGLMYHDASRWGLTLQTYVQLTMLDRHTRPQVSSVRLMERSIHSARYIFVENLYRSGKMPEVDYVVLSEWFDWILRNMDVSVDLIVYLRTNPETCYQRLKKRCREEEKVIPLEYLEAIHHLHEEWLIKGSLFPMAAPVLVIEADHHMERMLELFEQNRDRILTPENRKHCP
T10 sequence (Q6L8Q7 43-609): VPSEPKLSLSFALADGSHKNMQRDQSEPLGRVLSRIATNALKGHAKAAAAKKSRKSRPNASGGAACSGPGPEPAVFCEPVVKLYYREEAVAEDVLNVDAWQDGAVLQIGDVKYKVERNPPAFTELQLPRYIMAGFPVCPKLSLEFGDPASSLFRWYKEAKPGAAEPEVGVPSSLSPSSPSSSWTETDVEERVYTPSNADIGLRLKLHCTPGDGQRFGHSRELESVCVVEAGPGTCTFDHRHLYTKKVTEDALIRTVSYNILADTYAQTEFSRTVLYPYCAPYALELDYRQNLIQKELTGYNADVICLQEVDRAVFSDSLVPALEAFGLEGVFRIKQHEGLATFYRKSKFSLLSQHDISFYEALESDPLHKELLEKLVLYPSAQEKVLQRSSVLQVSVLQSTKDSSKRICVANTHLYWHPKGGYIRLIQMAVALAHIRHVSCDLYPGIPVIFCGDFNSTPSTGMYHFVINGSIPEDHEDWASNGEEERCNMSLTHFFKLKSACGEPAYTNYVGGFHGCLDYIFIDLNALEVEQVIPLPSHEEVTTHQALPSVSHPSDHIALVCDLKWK
T17 sequence (Q96EY8 33-250): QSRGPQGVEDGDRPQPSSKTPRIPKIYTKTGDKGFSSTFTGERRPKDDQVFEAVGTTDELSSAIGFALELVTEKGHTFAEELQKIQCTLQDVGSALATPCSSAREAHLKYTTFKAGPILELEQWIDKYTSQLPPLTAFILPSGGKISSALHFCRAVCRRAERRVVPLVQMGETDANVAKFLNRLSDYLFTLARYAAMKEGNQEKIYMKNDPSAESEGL
T8 sequence (Q9NUQ8 whole entry): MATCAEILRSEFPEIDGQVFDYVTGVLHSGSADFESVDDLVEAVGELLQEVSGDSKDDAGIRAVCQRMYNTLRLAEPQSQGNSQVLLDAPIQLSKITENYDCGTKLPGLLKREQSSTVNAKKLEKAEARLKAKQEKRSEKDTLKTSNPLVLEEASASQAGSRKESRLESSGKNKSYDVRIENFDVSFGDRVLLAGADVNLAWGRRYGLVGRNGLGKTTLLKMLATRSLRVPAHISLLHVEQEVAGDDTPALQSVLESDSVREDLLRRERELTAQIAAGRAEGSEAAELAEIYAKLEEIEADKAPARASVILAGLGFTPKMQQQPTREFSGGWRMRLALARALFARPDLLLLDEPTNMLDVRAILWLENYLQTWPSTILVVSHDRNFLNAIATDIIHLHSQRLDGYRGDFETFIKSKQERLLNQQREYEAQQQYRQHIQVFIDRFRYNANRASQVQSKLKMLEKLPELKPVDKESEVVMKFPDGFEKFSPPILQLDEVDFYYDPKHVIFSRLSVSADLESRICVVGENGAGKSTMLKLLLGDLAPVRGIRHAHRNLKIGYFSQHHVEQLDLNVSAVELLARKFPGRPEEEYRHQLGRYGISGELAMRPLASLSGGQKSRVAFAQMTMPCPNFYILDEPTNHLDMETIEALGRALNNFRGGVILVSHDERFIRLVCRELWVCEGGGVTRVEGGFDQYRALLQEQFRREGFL
T16 sequence (P0C024 whole entry): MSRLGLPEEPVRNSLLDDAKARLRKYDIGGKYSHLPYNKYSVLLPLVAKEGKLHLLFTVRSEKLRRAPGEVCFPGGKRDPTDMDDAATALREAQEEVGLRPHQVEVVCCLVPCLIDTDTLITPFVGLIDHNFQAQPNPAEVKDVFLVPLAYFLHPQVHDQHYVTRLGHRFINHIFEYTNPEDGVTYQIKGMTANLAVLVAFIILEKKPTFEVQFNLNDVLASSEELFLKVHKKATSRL
T22 sequence (Q9NWW6 whole entry): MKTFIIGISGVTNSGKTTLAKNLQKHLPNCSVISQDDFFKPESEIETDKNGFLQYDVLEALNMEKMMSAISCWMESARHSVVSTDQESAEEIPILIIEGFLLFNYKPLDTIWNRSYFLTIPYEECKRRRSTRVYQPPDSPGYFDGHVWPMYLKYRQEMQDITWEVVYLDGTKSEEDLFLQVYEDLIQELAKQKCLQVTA
T18 sequence (P09543 whole entry): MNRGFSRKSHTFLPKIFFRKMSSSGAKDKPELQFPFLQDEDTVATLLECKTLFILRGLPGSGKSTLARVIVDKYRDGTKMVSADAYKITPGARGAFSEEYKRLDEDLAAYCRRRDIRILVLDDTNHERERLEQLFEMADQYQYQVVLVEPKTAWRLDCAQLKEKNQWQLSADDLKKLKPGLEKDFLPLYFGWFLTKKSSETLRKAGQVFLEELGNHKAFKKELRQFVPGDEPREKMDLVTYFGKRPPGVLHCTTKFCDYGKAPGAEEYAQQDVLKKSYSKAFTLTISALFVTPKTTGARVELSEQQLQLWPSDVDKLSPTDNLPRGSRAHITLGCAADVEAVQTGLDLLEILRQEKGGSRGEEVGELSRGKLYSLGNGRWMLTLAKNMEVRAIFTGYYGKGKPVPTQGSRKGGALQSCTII

Cn1c(=O)[nH]c2ccc(-c3cccc(C(=O)NC4CCn5ccnc5C4)c3)cc21 (stereo not drawn) [Z36-MP5, 3-(3-methyl-2-oxo-2,3-dihydro-1H-benzo[d]imidazol-5-yl)-N-(5,6,7,8-tetrahydroimidazo[1,2-a]pyridin-7-yl)benzamide]
Inhibition (%) by 1 μM Z36-MP5 (DHX36): −20.12% | Inhibition (%) by 1 μM Z36-MP5 (HDDC3; HDDC3, SEQ ID NO: 90, ATP BS): 1.23% | Inhibition (%) by 1 μM Z36-MP5 (HDDC3; HDDC3, SEQ ID NO: 91, ATP BS): 17.25% | Inhibition (%) by 1 μM Z36-MP5 (TK2): 14.43% | Inhibition (%) by 1 μM Z36-MP5 (ACACA): 6.21% | Inhibition (%) by 1 μM Z36-MP5 (GMPS; SEQ ID NO: 85, labeling site Other): −13.99% | Inhibition (%) by 1 μM Z36-MP5 (GMPS; SEQ ID NO: 86, labeling site Other): 14.54% | Inhibition (%) by 1 μM Z36-MP5 (PFKM): −8.93% | Inhibition (%) by 1 μM Z36-MP5 (ACACB): −1.87% | Inhibition (%) by 1 μM Z36-MP5 (ABCF3): 5.45% | Inhibition (%) by 1 μM Z36-MP5 (HSP90AB1, HSP90AB3P): −16.94% | Inhibition (%) by 1 μM Z36-MP5 (PDE12): −5.87% | Inhibition (%) by 1 μM Z36-MP5 (XRCC3): −4.81% | Inhibition (%) by 1 μM Z36-MP5 (SNRNP200): −14.27% | Inhibition (%) by 1 μM Z36-MP5 (NSF; SEQ ID NO: 138, ATP BS): 6.03% | Inhibition (%) by 1 μM Z36-MP5 (NSF; SEQ ID NO: 139, ATP BS): −6.18% | Inhibition (%) by 1 μM Z36-MP5 (TCP1): 6.76% | Inhibition (%) by 1 μM Z36-MP5 (PSMC6): −0.83% | Inhibition (%) by 1 μM Z36-MP5 (NUDT7): 19.75% | Inhibition (%) by 1 μM Z36-MP5 (MMAB): −4.08% | Inhibition (%) by 1 μM Z36-MP5 (CNP): −17.28% | inhibitory activity on Mi-2β function (enhanced expression of IFN-γ-responsive genes) [1]: most effective compound | Inhibition (%) by 1 μM Z36-MP5 [2]: −15.29% | Inhibition (%) by 1 μM Z36-MP5 (ATIC): 4.08% | Inhibition (%) by 1 μM Z36-MP5 (SKIV2L): −3.49% | Inhibition (%) by 1 μM Z36-MP5 (NUDT2; NUDT2, SEQ ID NO: 145, ATP BS): 19.18% | Inhibition (%) by 1 μM Z36-MP5 (NUDT2; NUDT2, SEQ ID NO: 146, ATP BS): 11.64% | Inhibition (%) by 1 μM Z36-MP5 (NRK1): 0.34% | Inhibition (%) by 1 μM Z36-MP5 (PRPS1L1, PRPS2): −13.63% | Inhibition (%) by 1 μM Z36-MP5 (HSPA9): −4.09% | Inhibition (%) by 1 μM Z36-MP5 (COASY; SEQ ID NO: 62, ATP BS): −3.39% | Inhibition (%) by 1 μM Z36-MP5 (COASY; SEQ ID NO: 63, ATP BS): 23.55% | Inhibition (%) by 1 μM Z36-MP5 (KARS): 2.22%
